Assay results from patent US5380834A, “Immuno-suppressive agent” (Ishihara Sangyo Kaisha Ltd., priority 1992, dated 1995).
Converted amounts (≈) assume the structure as drawn. Like-named read-outs stand apart in the source and are kept apart here.

What was measured:
murine thymocytes = assay: Effects on the mitogenic response by murine thymocytes (Con A stimulation, 3H-TdR uptake); assay type: cell-based, BALB/c murine; settings: Mus musculus, Thymocyte, read-out: IC50 value, a (mitogenic response of murine thymocytes)
Experimental: Using BALB/c murine thymocytes, the effect of the compound of the formula (I) on the mitogenic response of lymphocytes to the stimulation by concanavalin A (hereinafter referred to simply as Con A, Product No. L-1000, manufactured by Vector Laboratories) was studied. Namely, 4×10^5 murine thymocytes were cultured for 48 hours on a microplate with 96 wells in a RPMI1640 solution containing 10% of a fetal bovine serum (hereinafter referred to simply as a 10% FCS-RPMI solution) together with Con A (5 μg/ml) and the compound of the formula (I) (in an incubator, 5% CO2, at 37° C.). Then, 0.5 μCi of ^3 H-thymidine (hereinafter referred to simply as ^3 H-TdR) was added thereto, and the mixture was further cultured for 4 hours. Then, cells were collected by a cell harvester, and the radioactivity (dpm) of ^3 H-TdR uptaken into cells was measured. Such measured amounts of ^3 H-TdR uptaken into the cells were used as indices of the mitogenic response of the murine thymocytes, and the radioactivity at each concentration (from 0.001 to 1,000 μg/ml) of the compound of the formula (I) was compared with the control value treated solely by Con A, to calculate IC50 value. In these Tables 12 and 13, the results of murine thymocytes are shown by (a).
For the basic procedure of this test, reference was made to Selected methods in cellular immunology, p. 144-146 (translated by Katsuyuki Imai et al., published by Rikogakusha, (1982)).

[1] = test system: murine mixed lymphocyte reaction (spleen cells of BALB/c and C57BL/6 mice); assay: Effects on the murine mixed lymphocyte reaction (3H-TdR uptake); assay type: cell-based; settings: Mus musculus, BALB/c + C57BL/6 spleen cells, 48 hours, read-out: IC50 value, b (murine mixed lymphocyte reaction)
Experimental: Using spleen cells of BALB/c and C57BL/6 mice, the effect of the compound of the formula (I) on the murine mixed lymphocyte reaction in both sides, was studied. Namely, spleen cells of both types of mice were mixed in an equal amount of 5×10^5 cells each, and the mixed cells were cultured together with the compound of the formula (I) for 48 hours on a microplate with 96 wells by a 10% FCS-RPMI solution (in an incubator, 5% CO2, at 37° C.). Then, 0.5 μCi of ^3 H-TdR was added thereto, and the mixture was further cultured for from 16 to 18 hours. Then, cells were collected by a cell harvester, and the radioactivity (dpm) of ^3 H-TdR uptaken into the cells, was measured. Such measured amounts of ^3 H-TdR uptaken into the cells were used as indices for the mixed lymphocyte reaction, and the radioactivity at each concentration (from 0.001 to 1,000 μg/ml) of the compound of the formula (I) was compared with the non-treated control value, to calculate the Ic50 value.
For the basic procedure for this test, reference was made to Selected methods in cellular immunology, p. 147-149 (translated by Katsuyuki Imai et al., published by Rikogakusha, (1982)).

murine bone mallow cells = assay: Effects on the murine bone mallow cells (proliferation, 3H-TdR uptake); assay type: cell-based, BALB/c mouse; settings: Mus musculus
Experimental: Bone mallow cells were removed from the femur of a BALB/c mouse and suspended in a 10% FCS-RPMI solution. The cell suspension was put into a plastic Petri dish having a diameter of 10 cm and left to stand still (in an incubator, 5% CO2, at 37° C.). Two hours later, only floating cells were recovered, and adhesion cells were removed. 1×10^5 floating cells were cultured for 48 hours together with a 20% culture supernatant of L929 fibroblastoma and the compound of the formula (I) on a microplate with 96 wells by a 10% FCS-RPMI solution (in an incubator, 5% CO2, at 37° C.). Then, 0.5 μCi of ^3 H-TdR was added thereto, and the mixture was further cultured for 4 hours. Then, cells were collected by a cell harvester, and the radioactivity (dpm) of ^3 H-TdR uptaken into the cells, was measured. Such measured amounts of ^3 H-TdR uptaken into the cells were used as indices for the proliferation of bone mallow cells, and the radioactivity at each concentration (from 0.001 to 1,000 μg/ml) of the compound of the formula (I) was compared with the control value where the L929 culture supernatant was added alone, to calculate the IC50 value. In these Tables 12 and 13, the results of the bone mallow cells are shown by (c).
For the basic procedure of this test, reference was made to Seikagakujikken Koza compiled by Japan Biochemistry Association, Vol. 5, p. 266-270 (published by Tokyo Kagaku Dojin in 1986).

[2] = test system: IgGl antibody production from murine spleen B cells; assay: Effects on the IgGl antibody production from murine spleen cells (LPS + IL4); assay type: cell-based, BALB/c mouse; settings: Mus musculus, B-cell, 168 h, read-out: IC50 value, IgGl antibody production
Experimental: (§1) Using murine spleen B cells, the effects of the compound of the formula (I) on the IgGl, IgM and IgE antibody production induced by the stimulation by LPS (lipopolysaccharide; Product No. 520.02051, manufactured by Wako Junyaku) and IL4 (interleukin 4), were studied. Namely, spleen cells of a BALB/c mouse were treated with a murine anti-Thy-1 antibody (obtained from Chiba University) and a rabbit complement (Product No. 3051, manufactured by cedarlane) to remove T cells, and 3×10^5 spleen B cells were cultured for 7 days together with 10 μg/ml of LPS, 100 U/ml of mouse-recombinant IL4 (Product No. MIL-4C, manufactured by Genzyme) and each concentration (from […]) of the compound of the formula (I) on a microplate with 96 wells by a 10% FCS-RPMI solution (in an incubator, 5% CO2, at 37° C.).
(§2) For the basic procedure of this test, reference was made to The Journal of Immunology, Vol. 136, p. 4538, (1986).
(§3) The amount of each antibody in the cell culture supernatant hereby obtained, was measured by the following enzyme-immunoassay. Firstly, on a microplate with 96 wells, 1 μg/ml of a rabbit anti-mouse IgGl antibody (Product No. 36243, manufactured by Cappel), 1 μg/ml of a goat anti-mouse IgM antibody (Product No. 0611-0201, manufactured by Cappel) or 10 μg/ml of a rat anti-mouse IgE monoclonal antibody (Product No. LO-ME-2, manufactured by Experimental Immunology) was coated (50 μl/well, at room temperature for 60 minutes), and then a nonspecific bond was blocked by a 0.1% bovine serum albumin-containing 10 mM sodium phosphate buffer (pH 7.2) (at room temperature for 60 minutes). Then, the above-mentioned cell culture supernatant or its diluted solution was added in an amount of 50 μl/well and reacted at room temperature for 60 minutes. Further, an alkaline phosphatase-labeled rabbit anti-mouse IgGl antibody (Product No. 61-0122, manufactured by Zymet) diluted 1,000 times, an alkaline phosphatase-labeled rabbit anti-mouse IgM antibody (Product No. 61-6822, manufactured by Zymet) diluted 2,000 times, or an alkaline phosphatase-labeled goat anti-mouse IgE antibody (Product No. PA-284, manufactured by Binding Site) diluted 500 times was added in an amount of 50 μl/well and reacted at room temperature for 60 minutes. 100 μl/well of a 10% diethanol amine buffer solution (pH 9.8) containing p-nitrophenyl phosphate as an enzyme substrate, was reacted, and the absorbance at 405 nm was measured. The amount of each antibody was calculated from the calibration curve of each standard antibody, and the IC50 value of the compound of the formula (I) on the antibody production was calculated using as the control value a value obtained in the absence of the compound of the formula (I).

[3] = test system: IgM antibody production from murine spleen B cells; assay: Effects on the IgM antibody production from murine spleen cells (LPS + IL4); assay type: cell-based, BALB/c mouse; settings: Mus musculus, B-cell, 168 h, read-out: IC50 value, IgM antibody production
Experimental: as §1, §2, §3

[4] = test system: IgE antibody production from murine spleen B cells; assay: Effects on the IgE antibody production from murine spleen cells (LPS + IL4); assay type: cell-based, BALB/c mouse; settings: Mus musculus, B-cell, 168 h, read-out: IC50 value, IgE antibody production
Experimental: as §1, §2, §3

[5] = BALB/c thymocytes, Con A 5 μg/ml, 48 hours, 3H-TdR uptake
[6] = bone marrow cells, 20% L929 culture supernatant, 48 hours, 3H-TdR uptake, Tables 12-15, read-out: IC50 value, c (murine bone mallow cells)
[7] = spleen B cells, LPS 10 μg/ml, IL4 100 U/ml, 7 days, enzyme-immunoassay

Structure (SMILES)	IC50 (murine thymocytes; [5]) [µg/mL]	IC50 [1] [µg/mL]	IC50 (murine bone mallow cells; [6]) [µg/mL]	IC50 [2, 7] [µg/mL]	IC50 [3, 7] [µg/mL]	IC50 [4, 7] [µg/mL]	IC50 (murine thymocytes) [µg/mL]	IC50 (murine bone mallow cells; L929, read-out: IC50 value, c (murine bone mallow cells)) [µg/mL]	IC50 [2] [µg/mL]	IC50 [3] [µg/mL]	IC50 [4] [µg/mL]
CC(=O)Oc1ccccc1C(=O)O[C@H]1C=C[C@H]2CO[C@@H]1O2 [Compound 11]	110 (≈ 379 µM)	170	210 (≈ 723 µM)	16	28	32	–	–	–	–	–
CCCCCCCCCC(=O)O[C@H]1C=C[C@H]2CO[C@@H]1O2 [Compound 12, 1,6-anhydro-2-O-decanoyl-3,4-dideoxy-β-D-threo-hex-3-enopyranose]	110 (≈ 390 µM)	560	560 (≈ 1980 µM)	24	0.11	28	–	–	–	–	–
O=C(CCCCCBr)O[C@H]1C=C[C@H]2CO[C@@H]1O2 [Compound 13]	33 (≈ 108 µM)	190	330 (≈ 1080 µM)	< 0.001	< 0.001	0.32	–	–	–	–	–
O=C(O[C@H]1C=C[C@H]2CO[C@@H]1O2)c1cccs1 [Compound 14]	42 (≈ 176 µM)	13	500 (≈ 2100 µM)	10	0.89	3.7	–	–	–	–	–
O=C(/C=C/c1ccccc1)O[C@H]1C=C[C@H]2CO[C@@H]1O2 [Compound 18]	–	–	370 (≈ 1430 µM)	< 0.001	0.68	< 0.001	–	–	–	–	–
Nc1ccccc1C(=O)O[C@H]1C=C[C@H]2CO[C@@H]1O2 [Compound 19]	–	–	–	–	–	–	0.39 (≈ 1.58 µM)	160 (≈ 647 µM)	24	76	32
COC(=O)O[C@H]1C=C[C@H]2CO[C@@H]1O2 [Compound 21, 1,6-anhydro-3,4-dideoxy-2-O-methoxycarbonyl-β-D-threo-hex-3-enopyranose]	–	–	> 1000	500	130	17	–	–	–	–	–
CCCCCCCCCCCCCCCC(=O)O[C@@]1(C)C=C[C@H]2CO[C@@H]1O2 [Compound 33]	–	–	> 1000	340	5.6	460	–	–	–	–	–
CO[C@H]1C=C[C@H]2CO[C@@H]1O2 [Compound 41, 1,6-anhydro-3,4-dideoxy-2-O-methyl-β-D-threo-hex-3-enopyranose]	–	–	> 1000	670	> 1000	0.95	–	–	–	–	–
